Reference: patent publication US20100197657A1, “2-ARYL OR HETEROARYL INDOLE DERIVATIVES” (priority 2007, published 2010)
One block for each compound: values may come before it.

Assays:
ASIC = settings: cited from earlier work; for inhibition of ASIC current: Psalmotoxin-1 selective for ASIC1, APETx2 selective for ASIC3
human ASIC1 = target: T1, human ASIC1 (Homo sapiens, UniProt P78348); assay: In vitro assay for ASIC activity, whole-cell patch clamp, hASIC1 cell line; type: cell-based
T1 construct: expressed in transfected cells; host or cells: HEK293
T1 sequence (P78348 1-528): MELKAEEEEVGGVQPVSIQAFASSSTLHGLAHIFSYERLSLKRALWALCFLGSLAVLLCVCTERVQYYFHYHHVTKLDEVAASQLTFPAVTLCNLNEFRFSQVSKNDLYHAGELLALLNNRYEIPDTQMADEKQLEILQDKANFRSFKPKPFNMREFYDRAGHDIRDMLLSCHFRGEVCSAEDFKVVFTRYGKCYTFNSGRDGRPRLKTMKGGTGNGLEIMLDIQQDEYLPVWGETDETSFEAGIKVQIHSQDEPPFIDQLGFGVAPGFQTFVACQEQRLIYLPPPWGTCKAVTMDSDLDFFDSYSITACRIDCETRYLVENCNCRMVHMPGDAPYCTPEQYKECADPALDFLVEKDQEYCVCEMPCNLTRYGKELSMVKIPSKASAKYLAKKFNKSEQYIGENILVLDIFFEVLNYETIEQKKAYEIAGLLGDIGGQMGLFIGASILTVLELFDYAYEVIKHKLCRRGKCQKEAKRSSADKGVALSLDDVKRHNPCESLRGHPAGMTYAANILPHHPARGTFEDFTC
Experimental: Cell Preparation: Human embryonic kidney cells (HEK293) stably expressing the human ASIC ion channel, are grown to 70-90% confluence in T75 cell culture flasks. Cells are lifted by removing the growth media and incubating with 3 ml of warmed (37° C.) 50/50 Trypsin/Dulbecco's Solution (GIBCO, USA) for 4-6 minutes. 7 ml of pH7.4_HBS (see Solutions and Drugs) is then added to block Trypsin activity. The cell suspension is placed into a 10 ml centrifuge tube and centrifuged for 1 minute @ 150×G. After centrifugation, the supernatant is aspirated and the cell pellet is re-suspended in 2-5 ml of pH7.4_HBS for a final cell density of ˜0.6×10^6 cells/ml. For whole-cell patch clamp, approximately 1000 cells are placed in a recording chamber containing standard bath solution for electrophysiological recording. […]
Electrophysiological recording: Patch clamp recording pipettes were pulled from borosilicate glass and typically had 2-4 MOhm resistances. Whole cell currents were recorded with a patch clamp amplifier (Multiclamp 700B, Axon Instruments Inc). […] After a stable ASIC current was determined, inhibition of acid evoked current was determined by multiple applications of increasing concentrations (3-fold dilution) of compound. Inhibition of current was expressed as percent inhibition vs. baseline current. […] IC50s were determined using the Hill Equation.

human ASIC3 = target: T2, human ASIC3 (Homo sapiens, UniProt Q9UHC3); assay: In vitro assay for ASIC activity, whole-cell patch clamp, hASIC3 cell line; type: cell-based; settings: for inhibition at 10 µM: percent inhibition vs. baseline current, read-out: levels of inhibition of acid-evoked ASIC current; for inhibition of human ASIC3 current with increasing concentrations (FIG. 1): increasing concentrations of compound; for inhibition of inward current evoked by pH5.5 in the hASIC3 cell line: pre-application of 300 nM; for block of inward current evoked by pH5.5 in the hASIC3 cell line: pre-application of 10 μM
T2 construct: expressed in transfected cells; host or cells: HEK293
T2 sequence (Q9UHC3 1-531): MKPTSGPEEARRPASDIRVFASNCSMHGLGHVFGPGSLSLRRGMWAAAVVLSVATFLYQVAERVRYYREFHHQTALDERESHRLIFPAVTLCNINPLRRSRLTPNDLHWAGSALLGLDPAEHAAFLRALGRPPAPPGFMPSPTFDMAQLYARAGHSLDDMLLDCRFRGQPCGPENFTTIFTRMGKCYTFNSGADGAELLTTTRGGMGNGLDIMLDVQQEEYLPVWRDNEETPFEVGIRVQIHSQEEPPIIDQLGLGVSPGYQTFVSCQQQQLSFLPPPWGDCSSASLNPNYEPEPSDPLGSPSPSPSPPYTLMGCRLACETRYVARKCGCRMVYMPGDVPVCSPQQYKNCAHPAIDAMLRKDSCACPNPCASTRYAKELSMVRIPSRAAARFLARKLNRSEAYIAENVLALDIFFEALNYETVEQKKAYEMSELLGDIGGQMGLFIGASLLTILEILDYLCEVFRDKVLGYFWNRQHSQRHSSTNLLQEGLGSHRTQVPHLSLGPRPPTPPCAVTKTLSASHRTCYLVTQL
Experimental: Cell Preparation: Human embryonic kidney cells (HEK293) stably expressing the human ASIC ion channel, are grown to 70-90% confluence in T75 cell culture flasks. Cells are lifted by removing the growth media and incubating with 3 ml of warmed (37° C.) 50/50 Trypsin/Dulbecco's Solution (GIBCO, USA) for 4-6 minutes. 7 ml of pH7.4_HBS (see Solutions and Drugs) is then added to block Trypsin activity. The cell suspension is placed into a 10 ml centrifuge tube and centrifuged for 1 minute @ 150×G. After centrifugation, the supernatant is aspirated and the cell pellet is re-suspended in 2-5 ml of pH7.4_HBS for a final cell density of ˜0.6×10^6 cells/ml. For whole-cell patch clamp, approximately 1000 cells are placed in a recording chamber containing standard bath solution for electrophysiological recording.
Solutions and Drugs: The intracellular solution contains (mM): 119 K-gluconate, 15 KCl, 3.2 MgCl2, 5 EGTA, 5 HEPES, 5 K2ATP, pH 7.3. The standard bath solution (pH7.4_HBS) contains (mM): 150 NaCl, 5 KCl, 2 CaCl2, 1 MgCl2, 10 HEPES, 12 Dextrose, pH 7.4. The acid-activation bath solution (pH5.5_MBS) contains (mM): 150 NaCl, 5 KCl, 2 CaCl2, 1 MgCl2, 10 MES, 12 Dextrose, pH 5.5. Test compounds were prepared as 2 or 10 mM stock solutions in DMSO and diluted in either pH7.4_HBS or pH5.5_MBS to final concentration.
Electrophysiological recording: Patch clamp recording pipettes were pulled from borosilicate glass and typically had 2-4 MOhm resistances. Whole cell currents were recorded with a patch clamp amplifier (Multiclamp 700B, Axon Instruments Inc). Holding and test potential was −60 mV. Control and compound solutions perfused the vicinity of the cell with flow controlled by computer-operated solenoid valves. 10-90% solution exchange typically took <20 ms. After establishment of whole cell configuration, cells were perfused with pH7.4_HBS. Baseline ASIC current was determined by application of pH5.5_MBS at two minute intervals. After a stable ASIC current was determined, inhibition of acid evoked current was determined by multiple applications of increasing concentrations (3-fold dilution) of compound. Inhibition of current was expressed as percent inhibition vs. baseline current. A minimum of three independent determinations at each concentration of compound was used for each data point. IC50s were determined using the Hill Equation.

Compound: CC(C)C1c2cc(C3CC3c3ccc4cc(C(=N)N)ccc4c3)ccc2CCN1C (stereo not shown) [A-317567]
increase in potency vs. amiloride (ASIC; in vivo and in vitro assays): > 10 fold

Compound: N=C(N)c1ccc2[nH]c(-c3cc(Cl)cc(Cl)c3)cc2c1 [EXAMPLE 1, 2-(3,5-Dichlorophenyl)-1H-indole-5-carboximidamide]
inhibition of proton-evoked current in HEK cells expressing human ASIC1 (FIG. 2) (human ASIC1; HEK cells, human ASIC1): inhibits proton-evoked current
inhibition of inward current evoked by pH6.5 in the hASIC1 cell line (human ASIC1; pre-application of 300 nM, pH6.5): inhibits a large fraction of this current
inhibition of proton-evoked current in HEK cells expressing human ASIC3 (FIG. 2) (human ASIC3; HEK cells, human ASIC3): inhibits proton-evoked current
inhibition at 10 µM (human ASIC3): > 20%
inhibition of human ASIC3 current with increasing concentrations (FIG. 1) (human ASIC3): dose dependent inhibition
inhibition of inward current evoked by pH5.5 in the hASIC3 cell line (human ASIC3): inhibits the majority of the proton-evoked current

Compound: N=C(N)c1ccc2[nH]c(-c3cccc(CO)c3)cc2c1 [EXAMPLE 2]
block of inward current evoked by pH5.5 in the hASIC3 cell line (human ASIC3): did not block the proton-evoked current

Compound: N=C(N)c1ccc2[nH]c(-c3cc(Cl)cc(Br)c3)cc2c1 [EXAMPLE 3]
block of inward current evoked by pH5.5 in the hASIC3 cell line (human ASIC3): blocked the proton-evoked current

Compound: APETx2
inhibition of ASIC current (ASIC): inhibit ASIC current at nM concentrations

Compound: Psalmotoxin-1 (EDCIPKWKGCVNRHGDCCEGLECWKRRRSFEVCVPKTPKT; Pi-theraphotoxin-Pc1a; UniProt P60514 1-40, looked up)
inhibition of ASIC current (ASIC): inhibit ASIC current at nM concentrations

Now from value to compound:

inhibition of human ASIC3 current with increasing concentrations (FIG. 1) (human ASIC3): dose dependent inhibition
inhibition of inward current evoked by pH5.5 in the hASIC3 cell line (human ASIC3): inhibited the proton-evoked current
Compound: N=C(N)c1ccc2[nH]c(-c3cc(Br)cc(Br)c3)cc2c1 [EXAMPLE 4]

inhibition at 10 µM (human ASIC3): > 20%
Compound: N=C(Nc1ccccc1)c1ccc2[nH]c(-c3cc(Cl)cc(Cl)c3)cc2c1 [compound 21, 2-(3,5-dichlorophenyl)-N-phenyl-1H-indole-5-carboximidamide]

inhibition at 10 µM (human ASIC3): > 20%
Compound: NCc1ccc2[nH]c(-c3ccccc3)c(CN)c2c1 [compound 28, (2-Phenyl-1H-indole-3,5-diyl)dimethanamine]

inhibition at 10 µM (human ASIC3): > 20%
Compound: NCc1ccc2[nH]c(-c3cc(Cl)nc(Cl)c3)cc2c1 [compound 50, 1-[2-(2,6-Dichloropyridin-4-yl)-1H-indol-5-yl]methanamine]
